Test results reported in patent publication US20170037028A1 (BAYER PHARMA AKTIENGESELLSCHAFT, priority 2013, published 2017).

Target: T1, GLUT1 (Homo sapiens, UniProt P11166)
T1 sequence (P11166 1-492): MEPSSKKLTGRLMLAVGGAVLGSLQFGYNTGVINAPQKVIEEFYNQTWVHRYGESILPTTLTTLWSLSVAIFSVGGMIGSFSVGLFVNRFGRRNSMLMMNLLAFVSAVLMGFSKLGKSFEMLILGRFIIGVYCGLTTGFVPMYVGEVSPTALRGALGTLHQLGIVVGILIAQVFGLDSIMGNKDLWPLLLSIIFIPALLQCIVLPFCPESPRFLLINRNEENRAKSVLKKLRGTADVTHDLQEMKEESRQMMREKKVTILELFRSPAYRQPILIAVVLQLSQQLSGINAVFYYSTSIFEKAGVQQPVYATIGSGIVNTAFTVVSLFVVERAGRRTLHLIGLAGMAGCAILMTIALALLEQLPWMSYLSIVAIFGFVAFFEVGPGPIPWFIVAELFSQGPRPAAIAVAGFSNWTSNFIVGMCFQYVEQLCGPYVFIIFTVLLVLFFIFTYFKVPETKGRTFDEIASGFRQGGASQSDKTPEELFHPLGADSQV
Test: Indirect measurement of GLUT1 activity by quantification of intracellular ATP levels (glucose induced ATP increase)
Assay type: cell-based
Set-up: endogenous in cells; host or cells: DLD1 or CHO-K1
Details: read-out: IC50 regarding glucose induced ATP increase (GLUT1 inhibition)
Procedure, shortened: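 DLD1 or CHO-K1 cells were starved overnight in glucose-free medium with 1% FCS, then combined with an oxidative phosphorylation inhibitor. GLUT1 activity was read as glucose-induced ATP increase, GLUT2 as fructose-induced. Intracellular ATP was quantified by CellTiter-Glo luminescence.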

Row | Structure (SMILES) | IC50
1 | COCCNC(=O)c1ccc(Cn2nc(C)c(NC(=O)c3cc(C(N)=O)nc4cc(F)ccc34)c2C)cc1 [Example 1421] | 39 nM
2 | Cc1nn(Cc2ccc(C(=O)NCCN(C)C)cc2)c(C)c1NC(=O)c1cc(C(N)=O)nc2cc(F)ccc12 [Example 1422] | 7110 nM
3 | Cc1nn(Cc2ccc(C(=O)O)cc2)c(C)c1NC(=O)c1cc(C(N)=O)nc2cc(F)ccc12 [Example 1423] | 29.6 nM
4 | Cc1nn(Cc2ccc(C(N)=O)cc2)c(C)c1NC(=O)c1cc(C(N)=O)nc2cc(F)ccc12 [Example 1424] | 69.1 nM
5 | CNC(=O)c1ccc(Cn2nc(C)c(NC(=O)c3cc(C(N)=O)nc4cc(F)ccc34)c2C)cc1 [Example 1425] | 56.3 nM
6 | Cc1nn(Cc2ccc(C(=O)N(C)C)cc2)c(C)c1NC(=O)c1cc(C(N)=O)nc2cc(F)ccc12 [Example 1426] | 80 nM
7 | Cc1nn(Cc2ccc(C#N)cc2)c(C)c1NC(=O)c1cc(C(=O)N2CCC2)nc2cc(F)ccc12 [Example 1428] | 12.3 nM
8 | Cc1c(NC(=O)c2cc(C(N)=O)nc3cc(F)ccc23)c(C(F)(F)F)nn1Cc1ccc(S(C)(=O)=O)cc1 [Example 1429] | 29.4 nM
9 | Cc1c(NC(=O)c2cc(C(F)(F)F)nc3ccc(Br)cc23)c(C(F)(F)F)nn1Cc1ccc(S(C)(=O)=O)cc1 [Example 1430] | 66.3 nM
10 | COc1cc(C(=O)Nc2c(C(F)(F)F)nn(Cc3ccc(S(C)(=O)=O)cc3)c2C)c2ccccc2n1 [Example 1431] | 138 nM
11 | Cc1c(NC(=O)c2cc(C(N)=O)nc3ccccc23)c(C(F)(F)F)nn1Cc1ccc(S(C)(=O)=O)cc1 [Example 1432] | 27.4 nM
12 | Cc1c(NC(=O)c2cc(C(N)=O)nc3ccc(NCCN(C)C)cc23)c(C(F)(F)F)nn1Cc1ccc(C#N)cc1 [Example 1434] | 51.3 nM
13 | Cc1c(NC(=O)c2cc(C(N)=O)nc3cc(F)ccc23)c(C(F)(F)F)nn1Cc1ccc(F)cc1F [Example 1435] | 2.8 nM
14 | COc1cc(C(=O)Nc2c(C(F)(F)F)nn(Cc3ccc(F)cc3)c2C)c2ccccc2n1 [Example 1436] | 63.2 nM
15 | Cc1c(NC(=O)c2cc(C(N)=O)nc3cccc(F)c23)c(C(F)(F)F)nn1Cc1ccc(S(C)(=O)=O)cc1 [Example 1437] | 13.9 nM
16 | Cc1c(NC(=O)c2cc(C(N)=O)nc3cc(F)c(Cl)cc23)c(C(F)(F)F)nn1Cc1ccc(S(C)(=O)=O)cc1 [Example 1438] | 3.1 nM
17 | Cc1c(NC(=O)c2cc(C(N)=O)nc3ccc(Br)cc23)c(C(F)(F)F)nn1Cc1ccc(S(C)(=O)=O)cc1 [Example 1439] | 1.9 nM
18 | Cc1c(NC(=O)c2cc(C(N)=O)nc3cccc(F)c23)c(C(F)(F)F)nn1Cc1ccc(F)cc1F [Example 1440] | 5.4 nM
19 | Cc1c(NC(=O)c2cc(C(N)=O)nc3cc(F)c(Cl)cc23)c(C(F)(F)F)nn1Cc1ccc(F)cc1F [Example 1441] | 6.5 nM
20 | Cc1c(NC(=O)c2cc(C(N)=O)nc3ccc(Br)cc23)c(C(F)(F)F)nn1Cc1ccc(F)cc1F [Example 1442] | 2 nM
21 | Cc1c(NC(=O)c2cc(C(N)=O)nc3cccc(F)c23)c(C(F)(F)F)nn1Cc1ccc(F)c(F)c1 [Example 1443] | 4 nM
22 | Cc1c(NC(=O)c2cc(C(N)=O)nc3cc(F)c(Cl)cc23)c(C(F)(F)F)nn1Cc1ccc(F)c(F)c1 [Example 1444] | 11.6 nM

Row | Structure (SMILES) | IC50
23 | Cc1c(NC(=O)c2cc(C(N)=O)nc3ccc(Br)cc23)c(C(F)(F)F)nn1Cc1ccc(F)c(F)c1 [Example 1445] | 5.7 nM
24 | COc1cccc(Cn2nc(C(F)(F)F)c(NC(=O)c3cc(C(N)=O)nc4cc(F)c(Cl)cc34)c2C)c1 [Example 1446] | 1.9 nM
25 | COc1cccc(Cn2nc(C(F)(F)F)c(NC(=O)c3cc(C(N)=O)nc4cc(F)ccc34)c2C)c1 [Example 1447] | 23.2 nM
26 | COc1cccc(Cn2nc(C(F)(F)F)c(NC(=O)c3cc(C(N)=O)nc4ccccc34)c2C)c1 [Example 1448] | 6.9 nM
27 | COc1cccc(Cn2nc(C(F)(F)F)c(NC(=O)c3cc(C(N)=O)nc4cccc(F)c34)c2C)c1 [Example 1449] | 18.7 nM
28 | COc1cccc(Cn2nc(C(F)(F)F)c(NC(=O)c3cc(C(N)=O)nc4ccc(Br)cc34)c2C)c1 [Example 1450] | 2.3 nM
29 | COc1cccc(Cn2nc(C)c(NC(=O)c3cc(C(N)=O)nc4cccc(F)c34)c2C)c1 [Example 1451] | 8.5 nM
30 | COc1cccc(Cn2nc(C)c(NC(=O)c3cc(C(N)=O)nc4ccccc34)c2C)c1 [Example 1452] | 8.8 nM
31 | COc1cccc(Cn2nc(C)c(NC(=O)c3cc(C(N)=O)nc4cc(F)c(Cl)cc34)c2C)c1 [Example 1453] | 1.4 nM
32 | Cc1nn(Cc2cccc(C#N)c2)c(C)c1NC(=O)c1cc(C(N)=O)nc2cc(F)ccc12 [Example 1454] | 13.3 nM
33 | Cc1nn(Cc2cccc(C#N)c2)c(C)c1NC(=O)c1cc(C(N)=O)nc2ccccc12 [Example 1455] | 20.8 nM
34 | Cc1nn(Cc2cccc(C#N)c2)c(C)c1NC(=O)c1cc(C(N)=O)nc2cc(F)c(Cl)cc12 [Example 1456] | 1.5 nM
35 | Cc1nn(Cc2cccc(C#N)c2)c(C)c1NC(=O)c1cc(C(N)=O)nc2cccc(F)c12 [Example 1457] | 15.2 nM
36 | COc1cccc(Cn2nc(C)c(NC(=O)c3cc(C(N)=O)nc4ccc(Br)cc34)c2C)c1 [Example 1458] | 2.3 nM
37 | COc1cccc(Cn2nc(C)c(NC(=O)c3cc(C(N)=O)nc4cc(F)ccc34)c2C)c1 [Example 1459] | 9.8 nM
38 | Cc1nn(Cc2ccc(OC(F)(F)F)cc2)c(C)c1NC(=O)c1cc(C(N)=O)nc2ccccc12 [Example 1460] | 1.9 nM
39 | Cc1nn(Cc2ccc(OC(F)(F)F)cc2)c(C)c1NC(=O)c1cc(C(N)=O)nc2cc(F)ccc12 [Example 1461] | 8.7 nM
40 | Cc1nn(Cc2ccc(OC(F)(F)F)cc2)c(C)c1NC(=O)c1cc(C(N)=O)nc2cccc(F)c12 [Example 1462] | 2.9 nM
41 | Cc1nn(Cc2ccc(OC(F)(F)F)cc2)c(C)c1NC(=O)c1cc(C(N)=O)nc2cc(F)c(Cl)cc12 [Example 1463] | 4.1 nM
42 | Cc1nn(Cc2ccc(OC(F)(F)F)cc2)c(C)c1NC(=O)c1cc(C(N)=O)nc2ccc(Br)cc12 [Example 1464] | 5.5 nM
43 | Cc1c(NC(=O)c2cc(C(N)=O)nc3ccccc23)c(C(F)(F)F)nn1Cc1ccc(OC(F)(F)F)cc1 [Example 1465] | 5.1 nM
44 | Cc1c(NC(=O)c2cc(C(N)=O)nc3cc(F)ccc23)c(C(F)(F)F)nn1Cc1ccc(OC(F)(F)F)cc1 [Example 1466] | 5.4 nM

Row | Structure (SMILES) | IC50
45 | Cc1c(NC(=O)c2cc(C(N)=O)nc3cccc(F)c23)c(C(F)(F)F)nn1Cc1ccc(OC(F)(F)F)cc1 [Example 1467] | 7.6 nM
46 | Cc1c(NC(=O)c2cc(C(N)=O)nc3cc(F)c(Cl)cc23)c(C(F)(F)F)nn1Cc1ccc(OC(F)(F)F)cc1 [Example 1468] | 12.9 nM
47 | Cc1nn(Cc2ccc(F)c(F)c2)c(C)c1NC(=O)c1cc(C(N)=O)nc2ccc(Br)cc12 [Example 1469] | 5.5 nM
48 | Cc1nn(Cc2ccc(F)c(F)c2)c(C)c1NC(=O)c1cc(C(N)=O)nc2cc(F)ccc12 [Example 1470] | 2.8 nM
49 | Cc1nn(Cc2ccc(F)c(F)c2)c(C)c1NC(=O)c1cc(C(N)=O)nc2cccc(F)c12 [Example 1471] | 12.3 nM
50 | Cc1nn(Cc2ccc(F)c(F)c2)c(C)c1NC(=O)c1cc(C(N)=O)nc2cc(F)c(Cl)cc12 [Example 1472] | 0.9 nM
51 | Cc1cccc(Cn2nc(C)c(NC(=O)c3cc(C(N)=O)nc4cc(F)c(Cl)cc34)c2C)c1 [Example 1473] | 5.2 nM
52 | Cc1cccc(Cn2nc(C)c(NC(=O)c3cc(C(N)=O)nc4cc(F)ccc34)c2C)c1 [Example 1474] | 2.1 nM
53 | Cc1cccc(Cn2nc(C)c(NC(=O)c3cc(C(N)=O)nc4cccc(F)c34)c2C)c1 [Example 1475] | 8.4 nM
54 | Cc1cccc(Cn2nc(C)c(NC(=O)c3cc(C(N)=O)nc4cc(F)c(Cl)cc34)c2C)c1 [Example 1476] | 2.9 nM
55 | Cc1cccc(Cn2nc(C)c(NC(=O)c3cc(C(N)=O)nc4ccc(Br)cc34)c2C)c1 [Example 1477] | 4.3 nM
56 | Cc1cccc(Cn2nc(C(F)(F)F)c(NC(=O)c3cc(C(N)=O)nc4ccccc34)c2C)c1 [Example 1478] | 6.2 nM
57 | Cc1cccc(Cn2nc(C(F)(F)F)c(NC(=O)c3cc(C(N)=O)nc4cccc(F)c34)c2C)c1 [Example 1479] | 22.7 nM
58 | Cc1cccc(Cn2nc(C(F)(F)F)c(NC(=O)c3cc(C(N)=O)nc4cc(F)ccc34)c2C)c1 [Example 1480] | 10.5 nM
59 | Cc1cccc(Cn2nc(C(F)(F)F)c(NC(=O)c3cc(C(N)=O)nc4cc(F)c(Cl)cc34)c2C)c1 [Example 1481] | 5.5 nM
60 | Cc1cccc(Cn2nc(C(F)(F)F)c(NC(=O)c3cc(C(N)=O)nc4ccc(Br)cc34)c2C)c1 [Example 1482] | 5.3 nM
61 | Cc1nn(Cc2ccc(S(C)(=O)=O)cc2)c(C)c1NC(=O)c1cc(C(N)=O)nc2cc(F)ccc12 [Example 1483] | 48.8 nM
62 | Cc1nn(Cc2ccc(S(C)(=O)=O)cc2)c(C)c1NC(=O)c1cc(C(N)=O)nc2cccc(F)c12 [Example 1484] | 23.4 nM
63 | Cc1nn(Cc2ccc(S(C)(=O)=O)cc2)c(C)c1NC(=O)c1cc(C(N)=O)nc2cc(F)c(Cl)cc12 [Example 1485] | 5.3 nM
64 | Cc1nn(Cc2ccc(S(C)(=O)=O)cc2)c(C)c1NC(=O)c1cc(C(N)=O)nc2ccc(Br)cc12 [Example 1486] | 9.6 nM
